Assay results: patent US10487091B2, “Activators of autophagic flux and phospholipase D and clearance of protein aggregates including tau and treatment of proteinopathies” (THE TRUSTEES OF COLUMBIA UNIVERSITY IN THE CITY OF NEW YORK, priority 2015, dated 2019)
Read-outs that look alike come from different tables or passages of the source.

Key:
[1] = Cytotoxicity LC50 (XTT assay for cell viability); assay type: cell-based; conditions: human, transfected HEK 293 cells that express mKate2-tagged Tau;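 further: cells carry doxycycline-repressible Tau, induced by withdrawing doxycycline for 72 h before compound exposure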
Protocol: The cells were grown in the presence of the antibiotic doxycycline. When the antibiotic is removed the cells produce Tau (which can be quantified), thus allowing the test compounds' effects on Tau's production to be compared. Doxycycline was removed for 72 hours prior to exposure to the test compounds to promote sufficient Tau production. Cells were subsequently plated into plates for each of the assays described below.

Autophagy Markers = experiment: Autophagy markers (Cyto-ID assay) in HEK 293 cells; assay type: cell-based, Human
Protocol: The dye used in the kit prevents its accumulation within lysosomes, but enables labelling of vacuoles associated with the autophagy pathway using the LC3 biomarker.
(§1) The test compounds (along with CytoID™ dye and Hoechst stain) were added to the cells and incubated for 3 hours. Reference compounds were also used in each plate, Rapamycin was used for autophagy induction and chloroquine was used for lysosomal inhibition. After 3 hours test compound was aspirated off and kept. Cells were then washed and read using a fluorescence plate reader. Hoescht, Cyto-ID™ and mKate2 were measured using 3 distinct wavelengths on the plate reader. The Hoescht measurement allowed normalisation of results across wells. After reading, test compound was re-added and the cells are left for a further 21 hours. At the 24 hour time point cells were once again washed and plates read using the fluorescence plate reader.
2) Test samples were prepared in warm FluoroBrite™ DMEM and with 10% FBS and 1% NEAA (FB-DMEM). Rapamycin 200 nM (Enzo #BML-A275-0025) was used for autophagy induction and […] chloroquine was used for lysosomal inhibition (bafilomycin or similar compounds were not used as they give a false negative result in the assay). Dimethyl Sulfoxide 1:1000 (DMSO; Fisher #BP231-100) was used as control. Autophagosome marker Cyto ID™ (1:500; Enzo #ENZ-51031-k200) and Hoechst (1:200) was added to these test sample preparations before treating the cells.
7) At 24 hours post reaction all medium was aspirated and the plate was washed 3 times with warm FB-DMEM, and read again for Hoescht (Ex=355 nm Em=446 nm), CytoID™ (Ex=463 nm; Em=534 nm) and mKate2 (Ex=575 nm; Em=630 nm) in 80 μl of FB-DMEM.

Tau/aggregate = Tau/aggregate inhibition in HEK 293 cells expressing mKate2-tagged Tau; assay type: cell-based, Human; conditions: for % Inhibition Tau/aggregate: @ 2 μM; for inhibition at 1 µM: Homo sapiens, HEK293
Protocol: (§2) 1) HEK cells with tet-regulated expression of mKate2 tagged Tau were grown in DMEM medium (Dulbecco's Modified Eagle's Medium) containing 0.5 μg/mL doxycycline (Dox)(MP-Bio#198955), after 3-5 days Dox was removed by washing the cells twice with sterile phosphate buffered saline (PBS; Invitrogen#14190-144), cells were left in DMEM without Dox for 72 hours (to further clear remaining Dox in cells).
as §1
(§3) Proteostat™ assay was used to detect aggresomes via measurement of p62. Aggresomes are inclusion bodies that form when the ubiquitin-proteasome machinery is overwhelmed with aggregation-prone proteins. Typically, an aggresome forms in response to some cellular stress, such as hyperthermia, viral infection, or exposure to reactive oxygen species. Aggresomes may provide a cytoprotective function by sequestering the toxic, aggregated proteins and may also facilitate their ultimate elimination from cells by autophagy. Following the final plate read described in the Cyto-ID™ assay described above, Proteostat™ detection reagent was added to every well and the plate was incubated for 15 minutes. Following this incubation, the plate was read by fluorescence plate reader at the specified wavelength. After this plate read, the cells were fixed by incubating with warm paraformaldehyde for 8 minutes. The fixed cells were then read by plate reader as before.
Western blot assays were performed to determine protein changes in Tau and p62. Cells were cultured as above and incubated with test compounds for 24 h. Following test compound incubation, the test compound was aspirated off and cells were washed before harvesting. Cells were spun at a low speed and supernatant was aspirated to leave the cell pellet. The cell pellet was then homogenized in buffer, centrifuged at high speed, and the supernatant aspirated and further separated into total fraction and aggregate fraction allowing quantification of soluble and insoluble proteins. Western blots were run on the samples, gels transferred to nitrocellulose and incubated with antibodies for Tau and p62. After incubation with secondary antibodies for detection, the bands of protein were quantified by chemiluminescence.

phospholipase D (PLD) = experiment: PLD assay (conversion of phospholipids to phosphatidylethanols in presence of ethanol, LC/MS); assay type: cell-based, mice; design: key: NC—no change; conditions: PLD activation, fold; 24 hours incubation
Protocol: Cells were incubated with test compound for 24 hours. 25 minutes prior to harvest at 24 hours, 3% ethanol solution was added to the wells to catalyze cleavage of the phospholipid. Cells were then placed on ice, washed and harvested. The harvested cells were centrifuged and the supernatant was aspirated and the pellet kept. The pellet was resuspended and chloroform/methanol lipid extraction was performed. The sample was centrifuged and the organic layer was separated, dried under nitrogen and stored at −80° C. On the day of analysis, samples were resuspended and analysed by LC/MS. All phosphatidylethanol species (PEtOH32-40:0-6:16/18:0/1) were combined together and represented as total lipid content (all lipid species).
The assay was run in e18 primary cortical neurons from PLD1 or PLD2 KO mice cultured for 14 days. Alternatively, the assay can be run in the cells described above in the presence of excess PLD1 or PLD2 inhibitor to preclude that particular action from contributing to the effect of the drug.
4) On the day of experiment, cells were washed in warmed HBSS twice before media containing test compound (n=3 per compound per dose), inhibitor (355 nM ML298 or 50 nM VU0150669), or vehicle are added to the wells (1.5 mL in 6 well, 600 μL in 12 well). Plates were incubated for 24 hours at 37° C. with 5% CO2.
5) 25 minutes prior to harvest, a 165 μL of a 3% ethanol solution was added to each well.
PLD activation converts phospholipids to phosphatidylethanols in the presence of ethanol. […] FIPI is a non-competitive inhibitor of PLD activity and was used as a negative control.

aggregates (Proteostat) = experiment: Proteostat protein aggregation assay EC50; assay type: cell-based; conditions: Homo sapiens; 50% reduction of Proteostat levels (fluorescent marker of aggregates)
Text: as §3
8) Detection solution was prepared by adding 10 μl Proteostat™ detection reagent (ENZ-51023-KP002) and 200 μL of 10× assay buffer into 1790 μL water and mixing well.
9) 20 μL was added per well (each well had 80 μl of Fluorobrite™ media with no FBS) and incubated in the dark for 15 min at room temperature.
10) Fluorescence for Proteostat™ (Ex=550 nm; Em=600 nm) was then read.

mKate2 tagged Tau = experiment: Tau-mKate2 fluorescence EC50; assay type: cell-based; conditions: Homo sapiens; 50% reduction of mKate2 fluorescence (tau tag)
Protocol: as §2
as §1, with “After 3 hours test compound was aspirated off and kept.” left out, “The Hoescht measurement allowed normalisation of results across wells.” left out
5) Treatment plate was then washed quickly 3 times with warm FB-DMEM (100 μL/well). […] At this point, the plate was ready for reading. See details in Reading Plate section. Hoescht was read at Excitation wavelength (Ex)=355 nm & Emission wavelength (Em)=446 nm. mKate2 was read at Ex=575 nm & Em=630 nm. Cyto-ID™ was read at Ex=463 nm & Em=534 nm. […]

| SMILES | CC50 ([1]; read-out: Cyto-toxixity LC50) [µM] | % Increase Autophagy Markers (Autophagy Markers; @ 2 μM) | % Inhibition Tau/aggregate (Tau/aggregate) | % Increase Autophagy Markers (Autophagy Markers) [%] | inhibition at 1 µM (Tau/aggregate) [%] | PLD (phospholipase D (PLD)) | CC50 ([1]; XTT assay, 200 = upper concentration limit tested, read-out: LC50 (the source's name)) [µM] | EC50 (aggregates (Proteostat)) [nM] | EC50 (mKate2 tagged Tau) [nM] |
| --- | --- | --- | --- | --- | --- | --- | --- | --- | --- |
| CC1(Sc2ncnc3ccc(F)cc23)CCC2CC1C2(C)C (stereo not drawn) [WHYKD13] | > 100 | No Effect @ 2 μM | No Effect @ 2 μM |  |  |  |  |  |  |
| Fc1ccc2ncnc(SC3CCOCC3)c2c1 [WHYKD19] | > 100 |  |  | 35 | 55 | 3.5 X |  |  |  |
| Oc1ccc(CCNc2ncnc3scnc23)cc1 [WHYKD2] | > 100 | No Effect @ 2 μM | No Effect @ 2 μM |  |  |  |  |  |  |
| Oc1ccc(CCNc2ncnc3ncsc23)cc1 [WHYKD21] | > 100 | No Effect @ 2 μM | No Effect @ 2 μM |  |  |  |  |  |  |
| Cn1nnnc1Sc1ncnc2ccc(-c3cccc4ccccc34)cc12 [WHYKD4] | > 100 | No Effect @ 2 μM | No Effect @ 2 μM |  |  |  |  |  |  |
| Fc1ccc2ncnc(SC3Cc4ccccc4C3)c2c1 [WHYKD20] | > 100 | No Effect @ 2 μM | No Effect @ 2 μM |  |  |  |  |  |  |
| Cn1nnnc1Sc1ncnc2ccccc12 [WHYKD6] | > 100 | No Effect @ 2 μM | No Effect @ 2 μM |  |  |  |  |  |  |
| Fc1ccc2ncnc(SC3CCCC3)c2c1 [WHYKD15] | > 100 |  |  | 40 | 65 | 3.6 X |  |  |  |
| Oc1ccc(CCNc2ncnc3ccsc23)cc1 [WHYKD23] | > 100 | No Effect @ 2 μM | No Effect @ 2 μM |  |  |  |  |  |  |
| Cn1nnnc1Sc1ccnc2ccccc12 [WHYKD10] | > 100 | No Effect @ 2 μM | No Effect @ 2 μM |  |  |  |  |  |  |
| Fc1ccc2ncnc(Cl)c2c1 [WHYKD9] | > 100 | No Effect @ 2 μM | No Effect @ 2 μM |  |  |  |  |  |  |
| Fc1ccc2ncnc(SC34CC5CC(CC(C5)C3)C4)c2c1 [WHYKD14] | > 100 | No Effect @ 2 μM | No Effect @ 2 μM |  |  |  |  |  |  |
| Cn1nnnc1Sc1ncnc2scnc12 [WHYKD1] | > 100 | No Effect @ 2 μM | No Effect @ 2 μM |  |  | NC |  |  |  |
| Ic1ccc2ncnc(SC3CCCC3)c2c1 [WHYKD30] |  |  |  |  |  |  | > 200 | 2510 | 1110 |
| O=c1[nH]cnc2ccc(F)cc12 [WHYKD24] | > 100 |  |  | 15 | 30 |  |  |  |  |
| Cn1nnnc1Sc1ncnc2ccc(Br)cc12 [WHYKD3] | > 100 | No Effect @ 2 μM | No Effect @ 2 μM |  |  | NC |  |  |  |
| Fc1ccc2ncnc(SC3CC4CCC3C4)c2c1 (stereo not drawn) [WHYKD16] | > 100 | No Effect @ 2 μM | No Effect @ 2 μM |  |  |  |  |  |  |
| COC(=O)CC12CC3CC(C1)CC(Sc1ncnc4ccc(F)cc14)(C3)C2 [WHYKD18] | > 100 | No Effect @ 2 μM | No Effect @ 2 μM |  |  |  |  |  |  |
| Cn1nnnc1Sc1ncnc2ccc(Cl)cc12 [WHYKD7] | > 100 | No Effect @ 2 μM | No Effect @ 2 μM |  |  |  |  |  |  |
| Oc1ccc(CCNc2ncnc3sccc23)cc1 [WHYKD22] | > 100 | No Effect @ 2 μM | No Effect @ 2 μM |  |  |  |  |  |  |
| Cn1nnnc1Sc1ccnc2ccc(F)cc12 [WHYKD11] | > 100 | No Effect @ 2 μM | No Effect @ 2 μM |  |  |  |  |  |  |
| Fc1ccc2ncnc(SC3CCCCC3)c2c1 [WHYKD12] | > 100 |  |  | 40 | 60 | 3.4 X |  |  |  |
| Cn1nnnc1Sc1ncnc2ccc(F)cc12 [WHYKD5] | > 100 |  |  | 20 | 35 | 1.7X |  |  |  |
